Test results reported in US20250221988A1 (Cullgen (Shanghai), Inc., priority 2022, published 2025).

What was measured:
tested cell lines = details: Matyskiela, Lu et al. 2016; cited from earlier work
GSPT1 [1] = target: T1, GSPT1 (Homo sapiens, UniProt P15170+Q96SW2); design: MOLM-13 cells were treated at indicated concentrations with compounds GS-729, GS-731, GS-697, and GS-788 for 16 hours prior to immunoblotting; endogenous in cells; host or cells: MOLM-13; details: Matyskiela, Lu et al. 2016; cited from earlier work
T1 sequence (P15170 whole entry): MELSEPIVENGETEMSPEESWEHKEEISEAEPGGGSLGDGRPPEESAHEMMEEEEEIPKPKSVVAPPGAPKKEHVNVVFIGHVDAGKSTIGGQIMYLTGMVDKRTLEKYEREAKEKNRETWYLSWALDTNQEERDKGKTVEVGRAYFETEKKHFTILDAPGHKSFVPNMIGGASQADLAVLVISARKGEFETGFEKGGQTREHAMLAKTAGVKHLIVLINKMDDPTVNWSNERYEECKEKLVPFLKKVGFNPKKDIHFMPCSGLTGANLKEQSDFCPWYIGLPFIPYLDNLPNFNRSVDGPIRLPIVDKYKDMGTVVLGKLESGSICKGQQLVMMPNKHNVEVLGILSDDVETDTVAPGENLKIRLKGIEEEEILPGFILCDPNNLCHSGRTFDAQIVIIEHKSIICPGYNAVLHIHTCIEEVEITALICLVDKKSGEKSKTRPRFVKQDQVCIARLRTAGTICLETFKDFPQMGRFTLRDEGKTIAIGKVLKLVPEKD
T1 sequence (Q96SW2 whole entry): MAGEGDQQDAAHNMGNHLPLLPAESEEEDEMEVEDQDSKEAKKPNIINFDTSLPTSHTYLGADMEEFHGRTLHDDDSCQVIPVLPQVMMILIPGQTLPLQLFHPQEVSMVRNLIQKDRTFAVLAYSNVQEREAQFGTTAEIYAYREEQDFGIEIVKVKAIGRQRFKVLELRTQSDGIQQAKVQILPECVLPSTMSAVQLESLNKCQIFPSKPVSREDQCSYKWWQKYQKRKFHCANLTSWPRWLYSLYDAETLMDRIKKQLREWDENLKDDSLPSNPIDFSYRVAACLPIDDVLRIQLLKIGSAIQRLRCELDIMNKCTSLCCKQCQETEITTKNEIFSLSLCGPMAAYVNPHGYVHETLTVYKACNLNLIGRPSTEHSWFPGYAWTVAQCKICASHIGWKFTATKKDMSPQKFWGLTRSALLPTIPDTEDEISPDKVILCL
T1 sequence (Q16531 whole entry partner): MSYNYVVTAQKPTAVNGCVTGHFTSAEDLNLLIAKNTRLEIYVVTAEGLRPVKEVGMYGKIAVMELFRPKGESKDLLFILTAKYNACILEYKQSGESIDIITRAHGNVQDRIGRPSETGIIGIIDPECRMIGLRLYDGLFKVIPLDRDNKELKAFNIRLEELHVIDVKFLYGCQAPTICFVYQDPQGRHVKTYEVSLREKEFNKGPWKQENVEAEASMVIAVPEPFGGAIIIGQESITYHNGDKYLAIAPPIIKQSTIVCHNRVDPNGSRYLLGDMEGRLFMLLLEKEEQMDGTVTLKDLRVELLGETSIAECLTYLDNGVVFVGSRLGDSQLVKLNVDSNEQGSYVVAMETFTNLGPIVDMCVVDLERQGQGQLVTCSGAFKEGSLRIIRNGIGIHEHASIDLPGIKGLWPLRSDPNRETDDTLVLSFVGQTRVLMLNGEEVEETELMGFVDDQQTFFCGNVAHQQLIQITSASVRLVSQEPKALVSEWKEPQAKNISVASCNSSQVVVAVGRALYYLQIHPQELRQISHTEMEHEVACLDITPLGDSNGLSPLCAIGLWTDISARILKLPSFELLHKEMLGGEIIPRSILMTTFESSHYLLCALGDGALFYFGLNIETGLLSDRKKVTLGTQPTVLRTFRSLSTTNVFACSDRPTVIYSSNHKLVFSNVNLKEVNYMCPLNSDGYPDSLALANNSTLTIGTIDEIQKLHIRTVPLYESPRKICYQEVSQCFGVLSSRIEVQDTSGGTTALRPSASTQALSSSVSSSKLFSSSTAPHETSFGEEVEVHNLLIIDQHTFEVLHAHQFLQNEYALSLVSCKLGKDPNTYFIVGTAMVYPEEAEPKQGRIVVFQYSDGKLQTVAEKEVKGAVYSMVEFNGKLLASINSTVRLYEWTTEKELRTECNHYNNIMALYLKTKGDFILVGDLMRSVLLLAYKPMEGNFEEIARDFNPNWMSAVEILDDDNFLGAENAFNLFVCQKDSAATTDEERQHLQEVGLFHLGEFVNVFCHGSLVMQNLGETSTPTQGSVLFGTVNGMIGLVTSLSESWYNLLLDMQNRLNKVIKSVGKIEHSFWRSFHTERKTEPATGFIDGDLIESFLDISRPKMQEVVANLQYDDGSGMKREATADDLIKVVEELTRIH

MOLM-13 cells = test: Cell viability assay (CellTiter-Glo) in MOLM-13 cells; format: cell-based; details: Homo sapiens, 72 h; MOLM-13 cells, compound alone, three days; read-out: MOLM-13 IC50
HEL cells = test: Cell viability assay in HEL cells; format: cell-based; details: Homo sapiens
Procedure: (§1) Cell Culture: RS4;11, MV4;11, MOLM-13 and other cells were cultured at 37° C. with 5% CO2 in RPMI 1640 or DMEM Medium supplemented with 10% fetal bovine serum. Cells were authenticated using the short tandem repeat (STR) assays. Mycoplasma test results were negative.
(§2) Cell viability assays: Cells were seeded at a density of 5000 cells per well in 96-well assay plates and treated with test compounds following a 8-point or 12-point 3-fold serial dilution. Three days later, cell viability was determined using the CellTiter-Glo assay kit according to the manufacturer's instructions. The dose-response curves were determined and IC50 values were calculated using the GraphPad Prism software following a nonlinear regression (least squares fit) method.
(§3) The compounds were tested in HEL, 22RV1, NCI-H82 or NCI-H1155 cells.

22RV1 cells = test: Cell viability assay in 22RV1 cells; format: cell-based; details: Homo sapiens
Procedure: as §1, §2, §3

NCI-H82 cells = test: Cell viability assay in NCI-H82 cells; format: cell-based; details: Homo sapiens
Procedure: as §1, §2, §3

NCI-H1155 cells = test: Cell viability assay in NCI-H1155 cells; format: cell-based; details: Homo sapiens, read-out: NCI-H115 IC50
Procedure: as §1, §2, §3

GSPT1 [2] = target: T1, GSPT1; test: Immunoblotting of GSPT1 in MOLM-13 cells; format: cell-based; design: endogenous in cells; host or cells: MOLM-13; details: indicated concentrations, 16 hours
Procedure: as §1
Antibodies and reagents: Rabbit anti-FLT3 antibody (3462S) was purchased from Cell Signaling Technology. Rabbit anti-GSPT1 antibody (ab126090) was purchased from Abeam. HRP-conjugated anti-α-tubulin antibody was produced in house. Media and other cell culture reagents were purchased from Thermo Fisher. The CellTiter-Glo Luminescent Assay kit was purchased from Promega.
Immunoblotting: Cultured cells were washed with cold PBS once and lysed in cold RIPA buffer supplemented with protease inhibitors and phosphatase inhibitors (Beyotime Biotechnology). The solutions were then incubated at 4° C. for 30 minutes with gentle agitation to fully lyse cells. Cell lysates were centrifuged at 13,000 rpm for 10 minutes at 4° C. and pellets were discarded. Total protein concentrations in the lysates were determined by BCA assays (Beyotime Biotechnology). Cell lysates were mixed with Laemmli loading buffer to 1× and heated at 99° C. for 5 min. Proteins were resolved on SDS-PAGE and visualized by chemiluminescence. Images were taken by a ChemiDoc MP Imaging system (Bio-Rad). Protein bands were quantitated using the accompanied software provided by Bio-Rad.

## Cc1ccc(NC(=O)NCc2ccc3c(c2)CN(C2CCC(=O)NC2=O)C3=O)cc1Cl (stereo not drawn) [CC-885]
Tested cell lines
  toxicity in tested cell lines: induced significant toxicity in the vast majority of tested cell lines
GSPT1 [1]
  cereblon-dependent degradation of GSPT1: led to cereblon-dependent degradation of GSPT1

## Cc1nc(-c2cn([C@H]3C[C@H](CNc4ccc5c(c4)CN([C@H]4CCC(=O)NC4=O)C5=O)C3)nc2C2CC2)ccc1F [GS-800, (S)-3-(5-(((trans-3-(3-cyclopropyl-4-(5-fluoro-6-methylpyridin-2-yl)-1H-pyrazol-1-yl)cyclobutyl)methyl)amino)-1-oxoisoindolin-2-yl)piperidine-2,6-dione]
MOLM-13 cells
  IC50: < 10 nM
HEL cells
  IC50: 10 to 100 nM
22RV1 cells
  IC50: < 10 nM
NCI-H82 cells
  IC50: < 10 nM

## O=C1CCC(N2Cc3cc(NC[C@H]4C[C@H](n5cc(-c6ccc(F)c(C(F)(F)F)n6)c(C6CC6)n5)C4)ccc3C2=O)C(=O)N1 (stereo partly drawn) [GS-803, 3-(5-(((Trans-3-(3-cyclopropyl-4-(5-fluoro-6-(trifluoromethyl)pyridin-2-yl)-1H-pyrazol-1-yl)cyclobutyl)methyl)amino)-1-oxoisoindolin-2-yl)piperidine-2,6-dione]
MOLM-13 cells
  IC50: < 10 nM
NCI-H1155 cells
  IC50: < 10 nM
GSPT1 [2]
  small molecule-mediated targeted degradation of GSPT1: targeted degradation of GSPT1

## Cc1ccc(Cl)c(-c2cn([C@H]3C[C@H](CNc4ccc5c(c4)CN(C4CCC(=O)NC4=O)C5=O)C3)nc2C2CC2)n1 (stereo partly drawn) [GS-805, 3-(5-(((Trans-3-(4-(3-chloro-6-methylpyridin-2-yl)-3-cyclopropyl-1H-pyrazol-1-yl)cyclobutyl)methyl)amino)-1-oxoisoindolin-2-yl)piperidine-2,6-dione]
HEL cells
  IC50: < 10 nM

## Cc1ccc(F)c(-c2cn([C@H]3C[C@H](CNc4ccc5c(c4)CN(C4CCC(=O)NC4=O)C5=O)C3)nc2C2CC2)n1 (stereo partly drawn) [GS-807, 3-(5-(((Trans-3-(3-cyclopropyl-4-(3-fluoro-6-methylpyridin-2-yl)-1H-pyrazol-1-yl)cyclobutyl)methyl)amino)-1-oxoisoindolin-2-yl)piperidine-2,6-dione]
HEL cells
  IC50: < 10 nM
22RV1 cells
  IC50: < 10 nM
NCI-H82 cells
  IC50: < 10 nM

## CNc1nc(-c2cn([C@H]3C[C@H](CNc4ccc5c(c4)CN(C4CCC(=O)NC4=O)C5=O)C3)nc2C2CC2)ccc1F (stereo partly drawn) [GS-808, 3-(5-(((Trans-3-(3-cyclopropyl-4-(5-fluoro-6-(methylamino)pyridin-2-yl)-1H-pyrazol-1-yl)cyclobutyl)methyl)amino)-1-oxoisoindolin-2-yl)piperidine-2,6-dione]
NCI-H82 cells
  IC50: < 10 nM

## Cc1nc(-c2cn([C@H]3C[C@H](CNc4ccc5c(c4)CN(C4CCC(=O)NC4=O)C5=O)C3)nc2C2CC2)c(Cl)cc1F (stereo partly drawn) [GS-812]
NCI-H82 cells
  IC50: < 10 nM
